According to publication PMC8268887, “Peptide/β-Peptoid Hybrids with Ultrashort PEG-Like Moieties: Effects on Hydrophobicity, Antibacterial Activity and Hemolytic Properties” (International Journal of Molecular Sciences, 2021):
Converted amounts (≈) assume the structure as drawn.

Legend:
[1] = system: P. aeruginosa PAO1; assay type: cell-based, Pseudomonas aeruginosa; details: PAO1, 20 h
Procedure: (§1) MIC values of the peptidomimetics were evaluated by using the modified Hancock lab protocol in non-binding polystyrene microtiter plates. Bacterial suspensions of ~5 × 10^5 CFU/mL in Mueller-Hinton broth (Difco, Sparks, MD, USA) were prepared with Mg^2+ and Ca^2+ concentrations of 4 mg/L each. The compounds were dissolved in H2O and diluted in 0.01% acetic acid, 0.2% BSA (final concentration). Aliquots (11 µL) of test compounds were then transferred to wells containing bacterial suspensions (100 µL). Low-binding sterile tubes and tips (Axygen, Union City, CA, USA) were used for preparation and transfer of the solutions of the compounds. Following incubation for 20 h of the covered plates at 35 °C (±2 °C) with circular shaking at 180 rpm, the MICs were read.

[2] = system: P. aeruginosa NMI 7197/19; assay type: cell-based, Pseudomonas aeruginosa; details: NMI 7197/19, 20 h
Procedure: as §1

[3] = Antiproliferative activity on HepG2 cell line (MTT assay); assay type: cell-based; details: HepG2 cells; at 1280 µg/mL, value in parenthesis; read-out: HepG2 cell viability at highest concentration tested
Procedure: (§2) Effect of compounds on mammalian cell viability was estimated on the HepG2 cell line ATCC HB-8065. In brief, HepG2 cells were seeded into flat-bottomed 96-well plates at a concentration of 5000 cells per well. Subsequently, the cells were incubated for 24 h in a humidified incubator (5% CO2, 37 °C). Then, the medium was removed, and the cells were incubated for 48 h in a humidified incubator (5% CO2, 37 °C) with peptidomimetics in serial dilutions. Then, an 3-(4,5-dimethylthiazol-2-yl)-2,5-diphenyltetrazolium bromide (MTT) assay was performed as previously described. In brief, after incubation with the test compounds, the culture medium was removed, and then fresh medium with 0.2 mg/mL MTT was added into each well of the plate. The cells were then incubated (3 h, 37 °C, 5% CO2), followed by removal of the medium with MTT and addition of 200 μL dimethyl sulfoxide at once to each sample. Absorbance of MTT was measured using the spectrophotometer TECAN Infinite M1000 at 540 nm. The relative viability was calculated by using the formula: ODtreated cells × 100/ODcontrol cells. The IC50 values are calculated by using the program Graph Pad Prism® 5.0. For all compounds, the test range was 10–1280 μg/mL.

[4] = system: HepG2 cell line ATCC HB-8065; assay: as above; assay type: cell-based; details: inhibition of growth of HepG2 cells, 48 h, MTT; highest concentration tested 1280 µg/mL
Procedure: as §2

[5] = Estimation of log D values (n-octanol/PBS pH 7.4, LC-MS, log Dmax from LOQ); assay type: physicochemical; details: n-octanol/PBS pH 7.4, 25 °C; indicative threshold from LOQ in octanol phase
Procedure: A phosphate buffered saline (PBS) pH 7.4 was prepared and then saturated with n-octanol. Likewise, an n-octanol solution saturated with pH 7.4 PBS buffer was also prepared. Both solutions were shaken for 24 h, and then left for 24 h in a separating funnel to ensure complete separation of the two phases. This provided an aqueous phase (PBS buffer saturated with n-octanol) and an n-octanol phase (saturated with PBS buffer).
Samples for log D determination were prepared as following: All compounds were dissolved in PBS buffer at a concentration 4 mg/mL, which was used as stock solutions. PBS-saturated n-octanol (1.0 mL), n-octanol-saturated PBS (0.76 mL) and sample stock solution (0.24 mL) were placed into a 4-mL clear glass vial and incubated on Biosan Thermo Shaker TS-100 at 1000 rpm and 25 °C. For optimization of the assay, the incubation time was varied from 5 h to 48 h. […] After incubation samples were centrifugated and left for 30 min to ensure complete separation of the phases. The distribution coefficient was determined by quantification of the compounds both in the aqueous and n-octanol phases. Then, 100 µL of each phase were transferred to 1.5 mL champagne glass vial and evaporated using a GeneVac EZ-2 PLUS evaporation instrument. Before LC-MS analysis samples were diluted with 200 µL MeCN–0.1% aqueous formic acid (1:1, v/v).
LC-MS was performed on Acquity UPLC chromatograph coupled with a MICROMASS QUATTRO micro^TM API tandem mass spectrometer. The mass spectrometer was operated in positive electrospray ionisation mode. Parameter settings were as follows: desolvation gas (N2) flow was 600 L/h; desolvation gas temperature was 400 °C; capillary voltage, 3.30 kV; ion source temperature was 120 °C. Initial data acquisition was carried out in full-scan mode to select the most abundant ions of the individual compounds.
Waters Acquity UPLC column BEH C18 (2.1 × 50 mm, 1.7 µm particle size) was applied for analysis. Acetonitrile and 0.1% aqueous formic acid mixtures were used as mobile phase at a flow rate of 0.4 mL/min with the following gradient: 0.0–2.5 min 5–98% MeCN, 2.5–3.5 min 98% MeCN. Injection volume was 2 µL.
Limit of quantitation (LOQ) was determined using S/N ratio for each compound and used for log Dmax calculations according to the following equation:(2) log Dmax = log (theoretical peak area of n-octanol phase at LOQ concentration/peak area of buffer base) Theoretical peak area at LOQ was calculated according to the calibration curve for each compound.

| SMILES | MIC, PA [1] [µg/mL] | MIC, P. aeruginosa NMI 7197/19 [2] [µg/mL] | HepG2 IC50 [4] [µg/mL] | log Dmax [5] | viability at 48 h [3] [%] |
| --- | --- | --- | --- | --- | --- |
| NCCCC[C@H](NC(=O)CCN(Cc1ccc(F)cc1)C(=O)[C@H](CCCCN)NC(=O)CCN(Cc1ccc(F)cc1)C(=O)[C@H](CCCCN)NC(=O)COCCOCCNC(=O)CCN(Cc1ccc(F)cc1)C(=O)[C@H](CCCCN)NC(=O)CCN(Cc1ccc(F)cc1)C(=O)[C@H](CCCCN)NC(=O)CCN(Cc1ccc(F)cc1)C(=O)[C@@H](N)CCCCN)C(=O)N(CCC(N)=O)Cc1ccc(F)cc1 [Compound 7, H-[X]3-sPEG2-[X]3-NH2] | 16 to 32 | >64 | 619 | < −3.650 | 10 |
| NCCCC[C@H](NC(=O)CCN(Cc1ccc(F)cc1)C(=O)[C@H](CCCCN)NC(=O)CCN(Cc1ccc(F)cc1)C(=O)[C@H](CCCCN)NC(=O)COCCN)C(=O)N(CCC(=O)NCCOCC(=O)N[C@@H](CCCCN)C(=O)N(CCC(=O)N[C@@H](CCCCN)C(=O)N(CCC(=O)N[C@@H](CCCCN)C(=O)N(CCC(=O)NCCOCC(N)=O)Cc1ccc(F)cc1)Cc1ccc(F)cc1)Cc1ccc(F)cc1)Cc1ccc(F)cc1 [Compound 11, H-sPEG1-[X]3-sPEG1-[X]3-sPEG1-NH2] | 32 (≈ 14.8 µM) | >64 | – | < −2.876 | – |
| NCCCC[C@H](NC(=O)CCN(Cc1ccc(F)cc1)C(=O)[C@H](CCCCN)NC(=O)CCN(Cc1ccc(F)cc1)C(=O)[C@H](CCCCN)NC(=O)CCOCCOCCOCCOCCN)C(=O)N(CCC(=O)NCCOCCOCCOCCOCCC(=O)N[C@@H](CCCCN)C(=O)N(CCC(=O)N[C@@H](CCCCN)C(=O)N(CCC(=O)N[C@@H](CCCCN)C(=O)N(CCC(=O)NCCOCCOCCOCCOCCC(N)=O)Cc1ccc(F)cc1)Cc1ccc(F)cc1)Cc1ccc(F)cc1)Cc1ccc(F)cc1 [Compound 14, H-sPEG4-[X]3-sPEG4-[X]3-sPEG4-NH2] | >64 | >64 | 450 | < −2.883 | 44 |
| NCCCC[C@H](NC(=O)CCN(Cc1ccc(F)cc1)C(=O)[C@H](CCCCN)NC(=O)COCCOCCNC(=O)CCN(Cc1ccc(F)cc1)C(=O)[C@H](CCCCN)NC(=O)CCN(Cc1ccc(F)cc1)C(=O)[C@H](CCCCN)NC(=O)COCCOCCNC(=O)CCN(Cc1ccc(F)cc1)C(=O)[C@H](CCCCN)NC(=O)CCN(Cc1ccc(F)cc1)C(=O)[C@@H](N)CCCCN)C(=O)N(CCC(N)=O)Cc1ccc(F)cc1 [Compound 16, H-[X]2-sPEG2-[X]2-sPEG2-[X]2-NH2] | 32 to 64 | >64 | 687 | < −3.922 | 27 |

Further lines, with some results ahead:

| MIC, PA [1] [µg/mL] | MIC, P. aeruginosa NMI 7197/19 [2] [µg/mL] | HepG2 IC50 [4] [µg/mL] | log Dmax [5] | SMILES | viability at 48 h [3] [%] |
| --- | --- | --- | --- | --- | --- |
| 32 to 64 | >64 | 464 | < −2.662 | NCCCC[C@H](NC(=O)CCN(Cc1ccc(F)cc1)C(=O)[C@H](CCCCN)NC(=O)CCN(Cc1ccc(F)cc1)C(=O)[C@H](CCCCN)NC(=O)CCN(Cc1ccc(F)cc1)C(=O)[C@H](CCCCN)NC(=O)CCN(Cc1ccc(F)cc1)C(=O)[C@H](CCCCN)NC(=O)CCN(Cc1ccc(F)cc1)C(=O)[C@@H](N)CCCCN)C(=O)N(CCC(N)=O)Cc1ccc(F)cc1 [Compound 1, H-[Lys-βNPhe(4-F)]6-NH2] | 0 |
| 32 (≈ 15.2 µM) | >64 | 693 | < −3.627 | NCCCC[C@H](NC(=O)CCN(Cc1ccc(F)cc1)C(=O)[C@H](CCCCN)NC(=O)CCN(Cc1ccc(F)cc1)C(=O)[C@H](CCCCN)NC(=O)CCOCCOCCOCCOCCNC(=O)CCN(Cc1ccc(F)cc1)C(=O)[C@H](CCCCN)NC(=O)CCN(Cc1ccc(F)cc1)C(=O)[C@H](CCCCN)NC(=O)CCN(Cc1ccc(F)cc1)C(=O)[C@@H](N)CCCCN)C(=O)N(CCC(N)=O)Cc1ccc(F)cc1 [Compound 9, H-[X]3-sPEG4-[X]3-NH2] | 9 |
| 16 (≈ 7.28 µM) | >64 | 800 | < −2.994 | NCCCC[C@H](NC(=O)CCN(Cc1ccc(F)cc1)C(=O)[C@H](CCCCN)NC(=O)CCN(Cc1ccc(F)cc1)C(=O)[C@H](CCCCN)NC(=O)CCOCCOCCOCCOCCOCCOCCNC(=O)CCN(Cc1ccc(F)cc1)C(=O)[C@H](CCCCN)NC(=O)CCN(Cc1ccc(F)cc1)C(=O)[C@H](CCCCN)NC(=O)CCN(Cc1ccc(F)cc1)C(=O)[C@@H](N)CCCCN)C(=O)N(CCC(N)=O)Cc1ccc(F)cc1 [Compound 10, H-[X]3-sPEG6-[X]3-NH2] | 27 |
| 16 to 64 | >64 | 332 | < −3.147 | NCCCC[C@H](NC(=O)CCN(Cc1ccc(F)cc1)C(=O)[C@H](CCCCN)NC(=O)CCN(Cc1ccc(F)cc1)C(=O)[C@H](CCCCN)NC(=O)COCCOCCN)C(=O)N(CCC(=O)NCCOCCOCC(=O)N[C@@H](CCCCN)C(=O)N(CCC(=O)N[C@@H](CCCCN)C(=O)N(CCC(=O)N[C@@H](CCCCN)C(=O)N(CCC(=O)NCCOCCOCC(N)=O)Cc1ccc(F)cc1)Cc1ccc(F)cc1)Cc1ccc(F)cc1)Cc1ccc(F)cc1 [Compound 12, H-sPEG2-[X]3-sPEG2-[X]3-sPEG2-NH2] | 34 |
| >64 | >64 | – | < −3.911 | NCCCC[C@H](NC(=O)CCN(Cc1ccc(F)cc1)C(=O)[C@H](CCCCN)NC(=O)CCN(Cc1ccc(F)cc1)C(=O)[C@H](CCCCN)NC(=O)COCCOCCOCCN)C(=O)N(CCC(=O)NCCOCCOCCOCC(=O)N[C@@H](CCCCN)C(=O)N(CCC(=O)N[C@@H](CCCCN)C(=O)N(CCC(=O)N[C@@H](CCCCN)C(=O)N(CCC(=O)NCCOCCOCCOCC(N)=O)Cc1ccc(F)cc1)Cc1ccc(F)cc1)Cc1ccc(F)cc1)Cc1ccc(F)cc1 [Compound 13, H-sPEG3-[X]3-sPEG3-[X]3-sPEG3-NH2] | – |
| 32 to 64 | >64 | 568 | < −3.180 | NCCCC[C@H](NC(=O)CCN(Cc1ccc(F)cc1)C(=O)[C@H](CCCCN)NC(=O)COCCNC(=O)CCN(Cc1ccc(F)cc1)C(=O)[C@H](CCCCN)NC(=O)CCN(Cc1ccc(F)cc1)C(=O)[C@H](CCCCN)NC(=O)COCCNC(=O)CCN(Cc1ccc(F)cc1)C(=O)[C@H](CCCCN)NC(=O)CCN(Cc1ccc(F)cc1)C(=O)[C@@H](N)CCCCN)C(=O)N(CCC(N)=O)Cc1ccc(F)cc1 [Compound 15, H-[X]2-sPEG1-[X]2-sPEG1-[X]2-NH2] | 26 |
